How the values were obtained:
Assay type in all cases: biochemical
[1] = molecular target: platelet derived growth factor-receptor B (PDGFRB) (Homo sapiens, UniProt P09619); test: cell-free recombinant human kinase assay
[2] = molecular target: platelet derived growth factor-receptor A (PDGFRA) (Homo sapiens, UniProt P16234); test: cell-free recombinant human kinase assay
[3] = molecular target: KIT (Homo sapiens, UniProt P10721); test: cell-free recombinant human kinase assay (also KINOMEscan binding)
Sequence of KIT (P10721 26-976): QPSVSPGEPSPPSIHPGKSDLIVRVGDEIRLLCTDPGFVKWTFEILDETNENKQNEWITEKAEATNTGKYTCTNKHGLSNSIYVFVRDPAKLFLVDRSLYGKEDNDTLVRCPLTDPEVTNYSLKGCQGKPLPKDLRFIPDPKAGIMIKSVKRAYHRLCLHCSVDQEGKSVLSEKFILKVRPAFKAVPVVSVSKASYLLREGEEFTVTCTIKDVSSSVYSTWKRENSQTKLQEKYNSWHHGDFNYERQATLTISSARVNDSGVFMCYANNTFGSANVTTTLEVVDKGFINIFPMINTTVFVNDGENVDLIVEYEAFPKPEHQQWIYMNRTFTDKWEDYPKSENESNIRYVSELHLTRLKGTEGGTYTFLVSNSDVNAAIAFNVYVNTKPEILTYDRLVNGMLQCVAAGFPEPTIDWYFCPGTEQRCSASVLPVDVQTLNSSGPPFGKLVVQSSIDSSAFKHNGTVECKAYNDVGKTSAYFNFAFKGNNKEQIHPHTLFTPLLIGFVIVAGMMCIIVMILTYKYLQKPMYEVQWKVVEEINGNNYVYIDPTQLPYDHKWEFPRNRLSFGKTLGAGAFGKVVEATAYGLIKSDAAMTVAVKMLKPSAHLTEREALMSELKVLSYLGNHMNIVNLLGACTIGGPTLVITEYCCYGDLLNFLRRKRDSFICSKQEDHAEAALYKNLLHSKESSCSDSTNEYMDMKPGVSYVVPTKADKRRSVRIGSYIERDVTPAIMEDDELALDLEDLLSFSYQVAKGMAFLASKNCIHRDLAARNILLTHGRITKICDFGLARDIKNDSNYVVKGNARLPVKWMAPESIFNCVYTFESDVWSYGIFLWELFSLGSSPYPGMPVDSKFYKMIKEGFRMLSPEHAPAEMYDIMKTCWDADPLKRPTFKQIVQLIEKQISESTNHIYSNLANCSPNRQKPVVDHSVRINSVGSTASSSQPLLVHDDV

Sequence of platelet derived growth factor-receptor A (PDGFRA) (P16234 24-1089): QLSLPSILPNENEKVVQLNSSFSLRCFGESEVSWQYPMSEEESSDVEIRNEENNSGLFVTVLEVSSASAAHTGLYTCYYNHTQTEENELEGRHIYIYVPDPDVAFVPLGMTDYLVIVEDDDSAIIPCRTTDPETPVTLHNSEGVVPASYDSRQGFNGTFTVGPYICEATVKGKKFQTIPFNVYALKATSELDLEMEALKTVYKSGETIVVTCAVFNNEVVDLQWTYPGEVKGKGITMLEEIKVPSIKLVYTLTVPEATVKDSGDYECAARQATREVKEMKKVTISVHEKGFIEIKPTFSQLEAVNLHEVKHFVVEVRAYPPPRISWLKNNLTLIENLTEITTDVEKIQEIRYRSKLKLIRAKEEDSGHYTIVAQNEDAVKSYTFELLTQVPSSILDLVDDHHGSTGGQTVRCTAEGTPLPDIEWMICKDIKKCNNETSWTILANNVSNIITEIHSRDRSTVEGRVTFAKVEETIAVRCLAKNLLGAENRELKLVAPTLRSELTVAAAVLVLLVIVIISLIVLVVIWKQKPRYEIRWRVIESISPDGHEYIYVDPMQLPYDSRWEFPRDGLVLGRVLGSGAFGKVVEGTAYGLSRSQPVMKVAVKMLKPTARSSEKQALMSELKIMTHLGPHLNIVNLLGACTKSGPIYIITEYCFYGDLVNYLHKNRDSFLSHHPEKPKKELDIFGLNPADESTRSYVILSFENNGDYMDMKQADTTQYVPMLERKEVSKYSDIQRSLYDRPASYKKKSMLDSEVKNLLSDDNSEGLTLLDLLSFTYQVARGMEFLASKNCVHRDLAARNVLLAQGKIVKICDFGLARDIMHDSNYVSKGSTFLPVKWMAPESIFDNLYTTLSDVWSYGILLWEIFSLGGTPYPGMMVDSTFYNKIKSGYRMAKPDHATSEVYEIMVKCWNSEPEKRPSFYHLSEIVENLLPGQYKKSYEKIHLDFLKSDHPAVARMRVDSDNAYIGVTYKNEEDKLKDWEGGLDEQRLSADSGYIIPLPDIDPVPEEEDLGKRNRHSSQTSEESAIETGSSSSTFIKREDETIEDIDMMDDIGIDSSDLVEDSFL
Sequence of platelet derived growth factor-receptor B (PDGFRB) (P09619 33-1106): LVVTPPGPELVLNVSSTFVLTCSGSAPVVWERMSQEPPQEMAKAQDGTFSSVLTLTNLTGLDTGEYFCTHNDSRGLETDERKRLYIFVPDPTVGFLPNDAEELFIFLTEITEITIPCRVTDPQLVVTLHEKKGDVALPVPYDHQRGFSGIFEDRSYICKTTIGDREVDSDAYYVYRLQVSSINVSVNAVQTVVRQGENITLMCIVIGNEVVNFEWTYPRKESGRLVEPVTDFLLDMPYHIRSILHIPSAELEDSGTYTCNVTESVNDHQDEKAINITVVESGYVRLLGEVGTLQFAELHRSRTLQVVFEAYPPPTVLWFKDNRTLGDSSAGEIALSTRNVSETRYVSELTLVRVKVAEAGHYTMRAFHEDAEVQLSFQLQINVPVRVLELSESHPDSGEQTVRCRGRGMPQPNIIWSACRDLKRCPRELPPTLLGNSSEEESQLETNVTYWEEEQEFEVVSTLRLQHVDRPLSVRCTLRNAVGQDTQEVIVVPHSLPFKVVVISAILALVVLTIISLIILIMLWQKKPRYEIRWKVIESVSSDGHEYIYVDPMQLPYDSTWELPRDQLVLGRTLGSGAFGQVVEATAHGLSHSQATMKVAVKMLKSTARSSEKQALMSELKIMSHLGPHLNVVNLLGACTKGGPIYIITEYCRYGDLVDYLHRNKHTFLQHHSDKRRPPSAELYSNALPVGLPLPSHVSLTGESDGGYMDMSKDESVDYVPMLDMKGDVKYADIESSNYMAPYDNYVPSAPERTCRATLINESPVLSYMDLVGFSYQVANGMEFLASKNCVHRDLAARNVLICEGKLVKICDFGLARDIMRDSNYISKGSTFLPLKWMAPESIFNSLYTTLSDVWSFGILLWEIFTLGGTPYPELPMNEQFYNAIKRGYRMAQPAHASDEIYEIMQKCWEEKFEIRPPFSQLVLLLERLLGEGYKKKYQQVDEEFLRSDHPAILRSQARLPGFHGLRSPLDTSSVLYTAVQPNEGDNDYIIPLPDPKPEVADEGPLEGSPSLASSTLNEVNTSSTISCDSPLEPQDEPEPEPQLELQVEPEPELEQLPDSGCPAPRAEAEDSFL

IC50 [1]: 218 nM
IC50 [2]: 1400 nM
IC50 [3]: 2 nM
Substance: MOD000001

From paper PMC11101940, “A highly selective KIT inhibitor MOD000001 suppresses IgE-mediated mast cell activation” (The Journal of Allergy and Clinical Immunology: Global, 2024)
